Key:
Assay type in all cases: in vivo
[1] = tested on: Echinocloa crus-galli (ECHCG); test: greenhouse post-emergence herbicidal test; conditions: scale from 0 to 100
From the text: (§1) The culture containers used were plastic flowerpots containing loamy sand with approximately 3.0% of humus as the substrate. The seeds of the test plants were sown separately for each species.
(§2) For the pre-emergence treatment, the active ingredients, which had been suspended or emulsified in water, were applied directly after sowing by means of finely distributing nozzles. The containers were irrigated gently to promote germination and growth and subsequently covered with transparent plastic hoods until the test plants had rooted. This cover caused uniform germination of the test plants, unless this had been impaired by the active ingredients. For the post-emergence treatment, the test plants were first grown to a height of 3 to 15 cm, depending on the plant habit, and only then treated with the active ingredients which had been suspended or emulsified in water. For this purpose, the test plants were either shown directly and grown in the same containers, or they were first grown separately as seedlings and transplanted into the test containers a few days prior to treatment.
(§3) Depending on the species, the test plants were kept at 10-25° C. or 20-35° C., respectively. The test period extended over 2 to 4 weeks. During this time, the test plants were tended, and their response to the individual treatments was evaluated.
(§4) Evaluation was carried out using a scale from 0 to 100. 100 means no emergence of the test plants, or complete destruction of at least the aerial moieties, and 0 means no damage, or normal course of growth. A good herbicidal activity is given at values of 70 to <90 and a very good herbicidal activity is given at values of 90 to 100.
(§5) The test plants used in the greenhouse experiments were of the following species: […]

[2] = tested on: Fallopia convolvulus (POLCO); test: greenhouse post-emergence herbicidal test; conditions: 0.32 kg/ha, scale from 0 to 100
From the text: as §1, §2, §3, §4, §5

[3] = tested on: Setaria viridis (SETVI); test: greenhouse post-emergence herbicidal test; conditions: scale from 0 to 100
From the text: as §1, §2, §3, §4, §5

[4] = tested on: Alopercurus myosuroides (ALOMY); test: greenhouse pre-emergence herbicidal test; conditions: scale from 0 to 100
From the text: as §1, §2, §3, §4, §5

[5] = tested on: Lolium multiflorum (LOLMU); test: greenhouse pre-emergence herbicidal test; conditions: scale from 0 to 100
From the text: as §1, §2, §3, §4, §5

[6] = tested on: Setaria viridis (SETVI); test: greenhouse pre-emergence herbicidal test; conditions: 0.250 kg/ha, scale from 0 to 100
From the text: as §1, §2, §3, §4, §5

[7] = tested on: Abutilon theophrasti (ABUTH); test: greenhouse post-emergence herbicidal test; conditions: 1.000 kg/ha, scale from 0 to 100
From the text: as §1, §2, §3, §4, §5

[8] = tested on: Apera spica-venti (APESV); test: greenhouse pre-emergence herbicidal test; conditions: scale from 0 to 100, read-out: herbicidal activity against APESV; for pest or weed control at 250 g/ha: 0.250 kg/ha; for pest or weed control at 500 g/ha: 0.500 kg/ha
From the text: as §1, §2, §3, §4, §5

[9] = tested on: Avena fatua (AVEFA); test: greenhouse post-emergence herbicidal test; conditions: for pest or weed control at 250 g/ha: 0.250 kg/ha; for pest or weed control at 500 g/ha: 0.500 kg/ha
From the text: as §1, §2, §3, §4, §5

[10] = tested on: Abutilon theophrasti (ABUTH); test: greenhouse pre-emergence herbicidal test; conditions: 0.500 kg/ha, scale from 0 to 100
From the text: as §1, §2, §3, §4, §5

[11] = tested on: Echinocloa crus-galli (ECHCG); test: greenhouse pre-emergence herbicidal test; conditions: 0.500 kg/ha, scale from 0 to 100
From the text: as §1, §2, §3, §4, §5

[12] = tested on: Setaria faberi (SETFA); test: greenhouse pre-emergence herbicidal test; conditions: scale from 0 to 100
From the text: as §1, §2, §3, §4, §5

[13] = tested on: Alopercurus myosuroides (ALOMY); test: greenhouse post-emergence herbicidal test; conditions: 0.125 kg/ha, scale from 0 to 100
From the text: as §1, §2, §3, §4, §5

[14] = tested on: Lolium multiflorum (LOLMU); test: greenhouse post-emergence herbicidal test; conditions: 0.125 kg/ha, scale from 0 to 100
From the text: as §1, §2, §3, §4, §5

[15] = tested on: Amaranthus retroflexus (AMARE); test: greenhouse post-emergence herbicidal test; conditions: 0.125 kg/ha, scale from 0 to 100
From the text: as §1, §2, §3, §4, §5

[16] = Avena fatua, scale from 0 to 100, read-out: herbicidal activity against AVEFA

CC(C)OC(=O)C1C=CC(NC(=O)C2(C(=O)Nc3cc(F)cc(F)c3)CCO2)C1 (mixture of isomers) [I.4]
herbicidal activity against ECHCG ([1]; 0.32 kg/ha): very good (a very good herbicidal activity is given at values of 90 to 100) | herbicidal activity against POLCO [2]: very good (a very good herbicidal activity is given at values of 90 to 100) | herbicidal activity against SETVI ([3]; 0.32 kg/ha): very good (a very good herbicidal activity is given at values of 90 to 100)

COC(=O)CC(C)NC(=O)C1(C(=O)Nc2cc(Cl)cc(Cl)c2)C=CCO1 (mixture of isomers) [I.25]
herbicidal activity against ALOMY ([4]; 0.0625 kg/ha): good (A good herbicidal activity is given at values of 70 to <90) | herbicidal activity against LOLMU ([5]; 0.0625 kg/ha): very good (a very good herbicidal activity is given at values of 90 to 100)

O=C([O-])C1C=CC(NC(=O)C2(C(=O)Nc3cc(Cl)cc(Cl)c3)C=CCO2)C1.[Na+] (mixture of isomers) [I.201]
herbicidal activity against SETVI [6]: good (A good herbicidal activity is given at values of 70 to <90)

COC(=O)C1C=CC(NC(=O)C2(C(=O)Nc3cc(Cl)cc(Cl)c3)OC2(C)C)C1 (mixture of isomers) [I.220]
herbicidal activity against ECHCG ([1]; 0.500 kg/ha): good (A good herbicidal activity is given at values of 70 to <90)

Cn1nnnc1NC(=O)C1(C(=O)Nc2cc(F)c(F)c(F)c2)CCO1 (racemic) [I.5]
herbicidal activity against LOLMU ([5]; 0.250 kg/ha): very good (a very good herbicidal activity is given at values of 90 to 100)

COC(=O)CC(C)NC(=O)C1(C(=O)Nc2cc(Cl)cc(Cl)c2)OCCO1 (racemic) [I.19]
herbicidal activity against ABUTH [7]: good (A good herbicidal activity is given at values of 70 to <90)

COC(=O)[C@@H]1C=C[C@H](NC(=O)C2(C(=O)Nc3cc(F)cc(F)c3)CCO2)C1 (stereo partly drawn) [Compound I1, methyl (1S,4R)-4-[[2-[(3,5-difluorophenyl)carbamoyl]oxetane-2-carbonyl]amino]cyclopent-2-ene-1-carboxylate]
pest or weed control at 250 g/ha [8]: 90 to 100% | pest or weed control at 250 g/ha [9, 16]: 90 to 100%

COC(=O)C[C@H](C)NC(=O)C1(C(=O)Nc2cc(F)cc(F)c2)CCO1 (stereo partly drawn) [Compound I2, methyl (3S)-3-[[2-[(3,5-difluorophenyl)carbamoyl]oxetane-2-carbonyl]amino]butanoate]
pest or weed control at 500 g/ha [8]: 90 to 100%

COC(=O)[C@@H]1C=C[C@H](NC(=O)C2(C(=O)Nc3cc(Cl)cc(Cl)c3)CCO2)C1 (stereo partly drawn) [Compound I6, methyl (1S,4R)-4-[[2-[(3,5-dichlorophenyl)carbamoyl]oxetane-2-carbonyl]amino]cyclopent-2-ene-1-carboxylate]
herbicidal activity against ABUTH [10]: very good (a very good herbicidal activity is given at values of 90 to 100) | pest or weed control at 500 g/ha [8]: 90 to 100%

COC(=O)C[C@H](C)NC(=O)C1(C(=O)Nc2cc(Cl)cc(Cl)c2)CCO1 (stereo partly drawn) [Compound I7, methyl (3S)-3-[[2-[(3,5-dichlorophenyl)carbamoyl]oxetane-2-carbonyl]amino]butanoate]
pest or weed control at 500 g/ha [8]: 90 to 100% | pest or weed control at 500 g/ha [9, 16]: 90 to 100%

COC(=O)[C@@H]1CC[C@H](NC(=O)C2(C(=O)Nc3cc(Cl)cc(Cl)c3)CCCO2)C1 (stereo partly drawn) [Compound I15]
herbicidal activity against ECHCG [11]: good (A good herbicidal activity is given at values of 70 to <90) | herbicidal activity against SETFA ([12]; 0.500 kg/ha): good (A good herbicidal activity is given at values of 70 to <90)

COC(=O)[C@@H]1C=C[C@H](NC(=O)C2(C(=O)Nc3cc(Cl)cc(Cl)c3)CCCO2)C1 (stereo partly drawn) [Compound I16, methyl (1S,4R)-4-[[2-[(3,5-dichlorophenyl)carbamoyl]tetrahydrofuran-2-carbonyl]amino]cyclopent-2-ene-1-carboxylate]
pest or weed control at 500 g/ha [8]: 90 to 100%

COC(=O)CCCNC(=O)C1(C(=O)Nc2cc(Cl)cc(Cl)c2)CCCO1 (stereo not drawn) [Compound I18, methyl 4-[[2-[(3,5-dichlorophenyl)carbamoyl]tetrahydrofuran-2-carbonyl]amino]butanoate]
pest or weed control at 500 g/ha [8]: 90 to 100% | pest or weed control at 500 g/ha [9, 16]: 70 to 90%

COC(=O)[C@@H]1C=C[C@H](NC(=O)C2(C(=O)Nc3cc(Cl)cc(Cl)c3)C=CCO2)C1 (stereo partly drawn) [Compound I24, methyl (1S,4R)-4-[[5-[(3,5-dichlorophenyl)carbamoyl]-2H-furan-5-carbonyl]amino]cyclopent-2-ene-1-carboxylate]
herbicidal activity against ALOMY ([4]; 0.250 kg/ha): very good (a very good herbicidal activity is given at values of 90 to 100) | pest or weed control at 250 g/ha [9, 16]: 90 to 100%

COC(=O)[C@@H]1C=C[C@H](NC(=O)C2(C(=O)Nc3cc(Cl)cc(Cl)c3)C=CCO2)C1 (stereo partly drawn) [Compound I183, methyl (1S,4R)-4-[[5-[(3,5-dichlorophenyl)carbamoyl]-2H-furan-5-carbonyl]amino]cyclopent-2-ene-1-carboxylate]
pest or weed control at 125 g/ha ([8]; 0.125 kg/ha): 70 to 90%

COC(=O)[C@@H]1C=C[C@H](NC(=O)C2(C(=O)Nc3cc(Cl)cc(Cl)c3)C=CCO2)C1 (stereo partly drawn) [Compound I184, methyl (1S,4R)-4-[[5-[(3,5-dichlorophenyl)carbamoyl]-2H-furan-5-carbonyl]amino]cyclopent-2-ene-1-carboxylate]
pest or weed control at 250 g/ha [8]: 90 to 100%

COC(=O)C[C@H](C)NC(=O)C1(C(=O)Nc2cc(Cl)cc(Cl)c2)CCCO1 (stereo partly drawn) [I.17, methyl (3S)-3-[[2-[(3,5-dichlorophenyl)carbamoyl]tetrahydrofuran-2-carbonyl]amino]butanoate]
pest or weed control at 500 g/ha [8]: 90 to 100% | pest or weed control at 500 g/ha [9, 16]: 70 to 90%

COC(=O)[C@@H]1C=C[C@H](NC(=O)C2(C(=O)Nc3cc(Cl)cc(Cl)c3)OCCS2)C1 (stereo partly drawn) [I.20, methyl (1S,4R)-4-[[2-[(3,5-dichlorophenyl)carbamoyl]-1,3-oxathiolane-2-carbonyl]amino]cyclopent-2-ene-1-carboxylate]
pest or weed control at 250 g/ha [8]: 70 to 90% | pest or weed control at 250 g/ha [9, 16]: 90 to 100%

COC(=O)CC[C@H](C)NC(=O)C1(C(=O)Nc2cc(Cl)cc(Cl)c2)OCCS1 (stereo partly drawn) [I.21, methyl (4S)-4-[[2-[(3,5-dichlorophenyl)carbamoyl]-1,3-oxathiolane-2-carbonyl]amino]pentanoate]
pest or weed control at 250 g/ha [8]: 90 to 100% | pest or weed control at 250 g/ha [9, 16]: 90 to 100%

COC(=O)C[C@H](C)NC(=O)C1(C(=O)Nc2cc(Cl)cc(Cl)c2)COCO1 (stereo partly drawn) [I.22]
herbicidal activity against ALOMY [13]: very good (a very good herbicidal activity is given at values of 90 to 100) | pest or weed control at 125 g/ha ([9]; Avena fatua, 0.125 kg/ha, scale from 0 to 100, read-out: herbicidal activity against AVEFA): 90 to 100% | herbicidal activity against LOLMU [14]: very good (a very good herbicidal activity is given at values of 90 to 100)

COC(=O)CCCNC(=O)C1(C(=O)Nc2cc(Cl)cc(Cl)c2)COCO1 (stereo not drawn) [I.23, methyl 4-[[4-[(3,5-dichlorophenyl)carbamoyl]-1,3-dioxolane-4-carbonyl]amino]butanoate]
pest or weed control at 500 g/ha [9, 16]: 70 to 90%

C=C1CCOC1(C(=O)Nc1cc(Cl)cc(Cl)c1)C(=O)NC(C)CC(=O)OC (stereo not drawn) [I.122]
herbicidal activity against AMARE [15]: good (A good herbicidal activity is given at values of 70 to <90)

O=C(O)CCCNC(=O)C1(C(=O)Nc2cc(F)cc(F)c2)CCO1 (stereo not drawn) [I.126]
herbicidal activity against SETVI ([3]; 0.0625 kg/ha): good (A good herbicidal activity is given at values of 70 to <90)

CS(=O)(=O)CCOC(=O)CCCNC(=O)C1(C(=O)Nc2cc(F)cc(F)c2)CCO1 (stereo not drawn) [I.130]
herbicidal activity against AVEFA ([9]; 0.0625 kg/ha, scale from 0 to 100): good (A good herbicidal activity is given at values of 70 to <90)

CC(C)OC(=O)C1C=CC(NC(=O)C2(C(=O)Nc3cc(F)c(F)c(F)c3)CCO2)C1 (stereo not drawn) [I.133]
herbicidal activity against ALOMY ([4]; 0.13128 kg/ha): very good (a very good herbicidal activity is given at values of 90 to 100) | herbicidal activity against LOLMU ([5]; 0.13128 kg/ha): very good (a very good herbicidal activity is given at values of 90 to 100) | herbicidal activity against SETFA ([12]; 0.13128 kg/ha): very good (a very good herbicidal activity is given at values of 90 to 100)

CC(C)OC(=O)C1C=CC(NC(=O)C2(C(=O)Nc3cccc(OC(F)(F)F)c3)CCO2)C1 (stereo not drawn) [I.134]
herbicidal activity against ECHCG ([1]; 0.0625 kg/ha): very good (a very good herbicidal activity is given at values of 90 to 100)
